Assay results published in US20260138959A1, “QUINAZOLINE DERIVATIVE COMPOUND AND USE THEREOF” (VORONOI INC., priority 2021, published 2026).
pIC50: −log10 of the molar value.

Legend:
Ba/F3-TEL-PDGFβ(WT) = assay: Proliferation inhibitory activity on Ba/F3 cell (CellTiter-Glo, 72 hours), PDGFR-β; format: cell-based; details: Mus musculus, BaF3, read-out: Ba/F3 (nM) Tel-PDGFRβ (GI50 class)
Method: Ba/F3-TEL-PDGFRα(WT), Ba/F3-TEL-PDGFβ(WT), Ba/F3-c-KIT(D816V) (Kyinno, #KC-0138), c-KIT V560G/D816V, c-KIT D814Y were seeded at 3×10^3/100 μl/well in a clear bottom white 96-well plate. A culture solution containing compounds of 12 concentrations (0.00001-2 mM) serially diluted in 3 folds and the DMSO control group was added at 0.5 μl/well each to a final concentration of 0.00005-10 μM, and then incubated in a CO2 incubator at 37° C. for 72 hours. After 72 hours, the plate treated with the compound was taken out, CellTiter-Glo® Assay (Promega) solution was treated with 100 μl/well, followed by mixing well. After mixing well for about 10 minutes at room temperature, […] was measured using a microplate reader. The data were presented as percentages in proportion to treated cells based on the vehicle, GI50 (nM) values were calculated using GraphPad Prism 8.3.0 (GraphPad software Inc., San Diego).
The inhibitory activities of Ba/F3 expressing PDGFR-α, PDGFR-β, c-KIT(D816V), c-KIT V560G/D816V, and c-KIT D814Y measured as described above were measured and shown in Table 7 below (A: GI50≤200 nM; B: 200 nM<GI50≤500 nM; C: GI50>500 nM).

human PDGFR-β(wt) = target: T1, human PDGFR-β(wt) (Homo sapiens, UniProt P09619); assay: Enzyme inhibitory activity, ADP-Glo kinase assay, PDGFR-β(wt); format: biochemical; details: read-out: PDGFR-β (IC50 class)
T1 construct: purchased Signalchem P13-11G
Method: In order to evaluate the inhibitory activity of the compounds synthesized according to the above examples on PDGFR-α(wt), PDGFR-β(wt), c-KIT(wt), and c-KIT(D816V) kinases, the following method was performed. The compounds of examples were reacted with purified human PDGFR-α(wt) (Signalchem #P12-18G) enzyme, human PDGFR-β(wt) (Signalchem #P13-11G) enzyme, human c-KIT(wt) (Signalchem #K06-11BG) enzyme, human c-KIT(D816V) (Signalchem #C06-12LG) enzyme, and the enzyme inhibitory abilities were evaluated by the following method.
The reaction buffer was used as a composition of 40 mM Tris-HCl pH7.4, 20 mM MgCl2, 0.5 mg/ml BSA, 50 μM DTT, and the reactions of all the tests were carried out on the reaction buffer. The compound was diluted in 12 steps using a serial dilution method from a 10 mM DMSO stock, and the enzyme activity was measured at a final compound concentration of 10˜0.00005645 μM. During the test, the enzyme activity was confirmed using in vitro ADP-Glo™ kinase assay (Promega) after reacting with the proper concentration of human PDGFR-α(wt) enzyme, human PDGFR-β(wt), human c-KIT(wt) enzyme, and human c-KIT(D816V) enzyme with purified ATP and enzyme substrate at 25° C. for 1˜2 hours. At a ratio of 2:2:1, an enzyme-active reaction solution, an ADP-Glo reaction solution, and an enzyme-active detection solution were reacted to measure the inhibition of the enzyme's activity with luminoscence. Based on the […] of the enzyme activity of the solvent control that was not treated with the compound, the degree of enzyme activity inhibition was calculated according to the treatment concentration of each compound, and the concentration of each compound that inhibits 50% of enzyme activity was determined as IC50 (nM) value and the value was obtained by using GraphPad Prism 8.3.0 (GraphPad software Inc., San Diego) software. (A: IC50≤50 nM; B: 50 nM<IC50≤100 nM; C: 100 nM<IC50≤500 nM; D: IC50>500 nM).

c-KIT V560G/D816V = assay: Proliferation inhibitory activity on Ba/F3 cell (CellTiter-Glo, 72 hours), c-KIT V560G/D816V; format: cell-based; details: Mus musculus, BaF3, c-KIT V560G/D816V cells, read-out: Cell (nM) c-KIT V560G/D816V (GI50 class)
Summary of the method: (§1)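 Viability was read by CellTiter-Glo after 72 h compound exposure at 37 °C, and GI50 values (nM) were derived from percent of vehicle-treated growth. Ba/F3 cells transformed with TEL-PDGFRα/β or mutant c-KIT were plated at 3×10^3 per well. Final compound range was 0.00005-10 μM in 12 threefold steps.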

Ba/F3-c-KIT(D816V) = assay: Proliferation inhibitory activity on Ba/F3 cell (CellTiter-Glo, 72 hours), c-KIT(D816V); format: cell-based; details: Mus musculus, BaF3, read-out: Ba/F3 (nM) c-KIT (D816V) (GI50 class)
Summary of the method: as §1

T1 sequence (P09619 33-1106): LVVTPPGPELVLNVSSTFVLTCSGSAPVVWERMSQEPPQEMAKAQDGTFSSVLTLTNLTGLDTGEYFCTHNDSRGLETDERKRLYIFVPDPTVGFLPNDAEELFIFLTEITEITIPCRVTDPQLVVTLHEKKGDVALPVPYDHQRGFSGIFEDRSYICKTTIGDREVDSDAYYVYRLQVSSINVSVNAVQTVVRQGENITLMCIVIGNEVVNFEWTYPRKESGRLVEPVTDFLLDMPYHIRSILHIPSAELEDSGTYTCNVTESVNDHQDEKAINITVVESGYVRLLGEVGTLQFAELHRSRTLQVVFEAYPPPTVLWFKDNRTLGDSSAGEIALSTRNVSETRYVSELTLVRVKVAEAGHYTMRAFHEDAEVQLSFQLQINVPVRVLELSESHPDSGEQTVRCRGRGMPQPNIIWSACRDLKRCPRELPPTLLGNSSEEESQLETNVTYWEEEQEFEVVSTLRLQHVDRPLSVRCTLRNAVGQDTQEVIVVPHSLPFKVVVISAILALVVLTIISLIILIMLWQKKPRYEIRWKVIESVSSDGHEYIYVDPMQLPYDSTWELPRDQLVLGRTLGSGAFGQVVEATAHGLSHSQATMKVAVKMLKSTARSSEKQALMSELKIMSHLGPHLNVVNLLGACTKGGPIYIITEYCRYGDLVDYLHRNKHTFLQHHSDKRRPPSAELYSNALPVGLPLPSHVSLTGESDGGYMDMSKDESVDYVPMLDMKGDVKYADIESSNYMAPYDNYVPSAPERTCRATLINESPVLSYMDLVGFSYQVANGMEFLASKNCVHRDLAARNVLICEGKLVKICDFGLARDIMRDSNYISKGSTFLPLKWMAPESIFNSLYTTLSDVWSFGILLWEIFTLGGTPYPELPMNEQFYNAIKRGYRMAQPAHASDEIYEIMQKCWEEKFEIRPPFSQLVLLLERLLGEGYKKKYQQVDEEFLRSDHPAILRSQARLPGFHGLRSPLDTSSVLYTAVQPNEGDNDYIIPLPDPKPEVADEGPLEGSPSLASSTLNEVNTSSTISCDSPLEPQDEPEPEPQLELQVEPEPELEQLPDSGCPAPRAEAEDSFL

SMILES: COc1cc2c(-c3ccc(NC(=O)C(C)c4ccco4)cc3)ncnc2cc1OCCCN1CCN(C)CC1 (stereo not drawn) [Example 48, 2-(furan-2-yl)-N-(4-(6-methoxy-7-(3-(4-methylpiperazin-1-yl)propoxy)quinazolin-4-yl)phenyl)propanamide]
- GI50 (Ba/F3-TEL-PDGFβ(WT)): ≤ 200 nM
- pIC50 (human PDGFR-β(wt)): ≥ 7.30

SMILES: COc1cc2c(-c3ccc(NC(=O)Cc4ccc5c(c4)OCO5)c(C)c3)ncnc2cc1OCCCN1CCN(C)CC1 [Example 164]
- GI50 (Ba/F3-TEL-PDGFβ(WT)): ≤ 200 nM
- pIC50 (human PDGFR-β(wt)): ≥ 7.30

SMILES: COc1cc2c(-c3ccc(NC(=O)Cc4ccc(C(F)(F)F)cc4)c(C)c3)ncnc2cc1OCCCN1CCN(C)CC1 [Example 49, N-(4-(6-methoxy-7-(3-(4-methylpiperazin-1-yl)propoxy)quinazolin-4-yl)-2-methylphenyl)-2-(4-(trifluoromethyl)phenyl)acetamide]
- GI50 (Ba/F3-TEL-PDGFβ(WT)): ≤ 200 nM
- pIC50 (human PDGFR-β(wt)): ≥ 7.30

SMILES: COc1cc2c(-c3ccc(NC(=O)Nc4cccc(C(F)(F)F)c4)cc3)ncnc2cc1OCCCN1CCN(C)CC1 [Example 169]
- GI50 (Ba/F3-TEL-PDGFβ(WT)): ≤ 200 nM

SMILES: COc1cc2c(-c3ccc(C(=O)NCc4ccc(F)c(F)c4)cc3)ncnc2cc1OCCCN1CCN(C)CC1 [Example 167, N-(3,4-difluorobenzyl)-4-(6-methoxy-7-(3-(4-methylpiperazin-1-yl)propoxy)quinazolin-4-yl)benzamide]
- GI50 (Ba/F3-TEL-PDGFβ(WT)): ≤ 200 nM
- pIC50 (human PDGFR-β(wt)): ≥ 7.30

SMILES: COCCN1CCC(COc2cc3ncnc(-c4ccc(NC(=O)Cc5ccc6c(c5)OCO6)c(F)c4)c3cc2OC)CC1 [Example 52, 2-(benzo[d][1,3]dioxol-5-yl)-N-(2-fluoro-4-(6-methoxy-7-((1-(2-methoxyethyl)piperidin-4-yl)methoxy)quinazolin-4-yl)phenyl)acetamide]
- GI50 (Ba/F3-TEL-PDGFβ(WT)): ≤ 200 nM

SMILES: COc1cc2c(-c3ccc(NC(=O)Cc4ccc5c(c4)OCO5)cc3)ncnc2cc1OCCCN1CCN(C)CC1 [Example 54, 2-(benzo[d][1,3]dioxol-5-yl)-N-(4-(6-methoxy-7-(3-(4-methylpiperazin-1-yl)propoxy)quinazolin-4-yl)phenyl)acetamide]
- GI50 (Ba/F3-TEL-PDGFβ(WT)): ≤ 200 nM
- pIC50 (human PDGFR-β(wt)): ≥ 7.30

SMILES: COc1cc2ncnc(-c3ccc(NC(=O)Cc4ccc(C(F)(F)F)cc4)cc3)c2cc1OC(=O)N1CCN(C)CC1 [Example 132, 7-methoxy-4-(4-(2-(4-(trifluoromethyl)phenyl)acetamido)phenyl)quinazolin-6-yl 4-methylpiperazin-1-carboxylate]
- GI50 (c-KIT V560G/D816V): > 500 nM
- GI50 (Ba/F3-c-KIT(D816V)): ≤ 200 nM
- GI50 (Ba/F3-TEL-PDGFβ(WT)): ≤ 200 nM

SMILES: COCCN1CCC(COc2cc3ncnc(-c4ccc(NC(=O)Cc5ccc6c(c5)OCO6)c(C)c4)c3cc2OC)CC1 [Example 53, 2-(benzo[d][1,3]dioxol-5-yl)-N-(4-(6-methoxy-7-((1-(2-methoxyethyl)piperidin-4-yl)methoxy)quinazolin-4-yl)-2-methylphenyl)acetamide]
- GI50 (Ba/F3-TEL-PDGFβ(WT)): ≤ 200 nM

SMILES: COc1cc2c(-c3ccc(NC(=O)Cc4ccc5c(c4)OCO5)c(F)c3)ncnc2cc1OCCCN1CCN(C)CC1 [Example 163, 2-(benzo[d][1,3]dioxol-5-yl)-N-(2-fluoro-4-(6-methoxy-7-(3-(4-methylpiperazin-1-yl)propoxy)quinazolin-4-yl)phenyl)acetamide]
- GI50 (Ba/F3-TEL-PDGFβ(WT)): ≤ 200 nM
- pIC50 (human PDGFR-β(wt)): ≥ 7.30

SMILES: COc1cc2c(-c3ccc(C(=O)NCc4ccc5c(c4)OCO5)cc3)ncnc2cc1OCCCN1CCN(C)CC1 [Example 166, N-(benzo[d][1,3]dioxol-5-ylmethyl)-4-(6-methoxy-7-(3-(4-methylpiperazin-1-yl)propoxy)quinazolin-4-yl)benzamide]
- GI50 (Ba/F3-TEL-PDGFβ(WT)): ≤ 200 nM
- pIC50 (human PDGFR-β(wt)): ≥ 7.30

SMILES: COc1cc2c(-c3ccc(NC(=O)Cc4cscn4)cc3)ncnc2cc1OCCCN1CCN(C)CC1 [Example 51, N-(4-(6-methoxy-7-(3-(4-methylpiperazin-1-yl)propoxy)quinazolin-4-yl)phenyl)-2-(thiazole-4-yl)acetamide]
- GI50 (Ba/F3-TEL-PDGFβ(WT)): ≤ 200 nM
- pIC50 (human PDGFR-β(wt)): ≥ 7.30

SMILES: COCCOc1cc2ncnc(-c3ccc(NC(=O)Cc4ccc(C(F)(F)F)nc4)cc3)c2cc1OC [Example 118, N-(4-(6-methoxy-7-(2-methoxyethoxy)quinazolin-4-yl)phenyl)-2-(6-(trifluoromethyl)pyridin-3-yl)acetamide]
- GI50 (c-KIT V560G/D816V): ≤ 200 nM
- GI50 (Ba/F3-TEL-PDGFβ(WT)): ≤ 200 nM
